Data published in patent publication US9353051B2, “Antiviral drugs for treatment or prevention of dengue infection” (Siga Technologies Inc., priority 2007, dated 2016).

System: Dengue-2 (Strain New Guinea C)
Assay: viral yield assay against Dengue-2 in Vero cells
Format: cell-based
Settings: Dengue virus; Vero cells, MOI 0.1, harvested 48 hours post infection; read-out: Activity (anti-dengue 2 viral activity, EC50)
Method: Compounds that were active in the primary screen were also tested for activity in viral yield assays. […] Vero cells in 12-well plates were infected with dengue-2 virus at a multiplicity of infection (MOI) of 0.1, treated with compound (or DMSO as a control), incubated at 37° C., harvested 48 hours post infection and titered on Vero cells as described above. The EC50 was calculated through ExcelFit. Those compounds with activity below 1 μM are indicated with “A”, those with activity between 1 and 10 μM are indicated with “B”, those with activity between 10 and 25 μM with “C”, and those with activity above 25 μM are indicated with “D”.

| Compound | EC50 |
| --- | --- |
| CC(c1ccc(S(N)(=O)=O)cc1)N(C)C(=O)CCc1nc2ccccc2c(=O)[nH]1 (stereo not shown) [Compound 132, N-Methyl-3-(4-oxo-3,4-dihydro-quinazolin-2-yl)-N-[1-(4-sulfamoyl-phenyl)-ethyl]-propionamide] | > 25 µM |
| CC(NS(=O)(=O)c1ccc(NC(=O)Cn2cnc3ccccc3c2=O)cc1)C1CC2CCC1C2 (stereo not shown) [Compound 43, N-[4-(1-Bicyclo[2.2.1]hept-2-yl-ethylsulfamoyl)-phenyl]-2-(4-oxo-4H-quinazolin-3-yl)-acetamide] | > 25 µM |
| CC(=O)NCCc1ccc(S(=O)(=O)Nc2ccc3ncn(Cc4ccccc4)c(=O)c3c2)cc1 [Compound 104, N-{2-[4-(3-Benzyl-4-oxo-3,4-dihydro-quinazolin-6-ylsulfamoyl)-phenyl]-ethyl}-acetamide] | > 25 µM |
| CCN(CC)S(=O)(=O)c1ccc(NC(=O)Cn2cnc3cc(OC)c(OC)cc3c2=O)cc1 [Compound 58, N-(4-Diethylsulfamoyl-phenyl)-2-(6,7-dimethoxy-4-oxo-4H-quinazolin-3-yl)-acetamicle] | > 25 µM |
| CNS(=O)(=O)c1ccc(NC(=O)Cn2cnc3ccccc3c2=O)cc1 [Compound 46, N-(4-Methylsulfamoyl-phenyl)-2-(4-oxo-4H-quinazolin-3-yl)-acetamide] | > 25 µM |
| CCN(CC)S(=O)(=O)c1ccc(C)c(NC(=O)Cn2cnc3ccccc3c2=O)c1 [Compound 89, N-(5-Diethylsulfamoyl-2-methyl-phenyl)-2-(4-oxo-4H-quinazolin-3-yl)-acetamide] | > 25 µM |
| CCN(CC)S(=O)(=O)c1ccc(C(=O)Nn2cnc3ccccc3c2=O)cc1 [Compound 67, 4-Diethylsulfamoyl-N-(4-oxo-4H-quinazolin-3-yl)-benzamide] | > 25 µM |
| O=C(Cn1cnc2ccccc2c1=O)Nc1ccc(S(=O)(=O)O)cc1 [Compound 127, 4-[2-(4-Oxo-4H-quinazolin-3-yl)-acetylamino]-benzenesulfonic acid] | > 25 µM |
| O=C(Cn1cnc2ccccc2c1=O)Nc1ccc(S(=O)(=O)NCCCN2CCOCC2)cc1 [Compound 40, N-[4-(3-Morpholin-4-yl-propylsulfamoyl)-phenyl]-2-(4-oxo-4H-quinazolin-3-yl)-acetamide] | > 25 µM |
| Cc1nn(CC(=O)Nc2ccc(S(N)(=O)=O)cc2)c(=O)c2ccccc12 [Compound 100, 2-(4-Methyl-1-oxo-1H-phthalazin-2-yl)-N-(4-sulfamoyl-phenyl)-acetamide] | > 25 µM |
| CCN(CC)S(=O)(=O)c1ccc(NC(=O)CNC(=O)c2ccc(OC)c(OC)c2)cc1 [Compound 79, N-[(4-Diethylsulfamoyl-phenylcarbamoyl)-methyl]-3,4-dimethoxy-benzamide] | > 25 µM |
| CC(C)NS(=O)(=O)c1ccc(NC(=O)Cn2cnc3ccccc3c2=O)cc1 [Compound 44, N-(4-Isopropyl-sulfamoyl-phenyl)-2-(4-oxo-4H-quinazolin-3-yl)-acetamide] | > 25 µM |
| CCN(CC(=O)NCCc1ccc(S(N)(=O)=O)cc1)Cc1nc2cc(OC)c(OC)cc2c(=O)[nH]1 [Compound 118, 2-[(6,7-Dimethoxy-4-oxo-3,4-dihydro-quinazolin-2-ylmethyl)-ethyl-amino]-N-[2-(4-sulfamoyl-phenyl)-ethyl]-acetamide] | > 25 µM |
| CCN(CC)C(=O)c1ccc(NCC(=O)Nc2ccc(S(=O)(=O)N(CC)CC)cc2)cc1 [Compound 76, 4-{[(4-Diethylsulfamoyl-phenylcarbamoyl)-methyl]-amino}-N,N-diethyl-benzamide] | > 25 µM |
| CCN(CC)S(=O)(=O)c1ccc(C(=O)OCc2nc3ccccc3c(=O)n2CC(N)=O)cc1 [Compound 66, 4-Diethylsulfamoyl-benzoic acid 3-carbamoylmethyl-4-oxo-3,4-dihydro-quinazolin-2-ylmethyl ester] | > 25 µM |
| O=C(Cn1cnc2ccccc2c1=O)Nc1ccc(S(=O)(=O)N2CCOCC2)cc1 [Compound 34, N-[4-(Morpholine-4-sulfonyl)-phenyl]-2-(4-oxo-4H-quinazolin-3-yl)-acetamide] | > 25 µM |
